Laboratory results from patent US7947308B2, “Effervescent powders for inhalation” (priority 2005, dated 2011).

Experiment: In vitro aerosol deposition, Mark II Andersen Cascade Impactor (MMAD, FPF, GSD)
Format: physicochemical
Details: spray-dried carrier particles containing ciprofloxacin; UV assay of impactor plates
Excerpt: The pulmonary deposition of the empty effervescent carrier particles and the carrier particles containing nanoparticles were investigated in vitro by measuring the Mass Median Aerodynamic Diameter (MMAD) using a Mark II Andersen Cascade Impactor (Thermo Andersen, Smyrna, Ga.) in combination with a new high efficiency inhaler (described in U.S. Patent Application Publication No. 2004/0107963 to Finlay, W. H. & Wang, Z., filed Dec. 2, 2003, entitled “Device and Method for Deagglomeration of Powder for Inhalation”, the contents of which are herein incorporated by reference); Wang, Z., Grgic, B., and Finlay, W. H. (2006) A Dry Powder Inhaler with Reduced Mouth-throat Deposition. […]
The MMAD was calculated by linear interpolation of the cumulative mass distribution to obtain the particle size for which the cumulative mass under this size was 50% (Sham, J.-H., Zhang, Y., Finlay, W. H., Roa, W. H. & Lobenberg, R. (2004) Formulation and characterization of spray-dried powders containing nanoparticles for aerosol delivery to the lung. International Journal of Pharmaceutics. 269: 457-467). […]
Particle size and FPF were determined as noted above in Example 1. The dispersibility and content of ciprofloxacin of the spray-dried powders was determined using a Mark II Andersen impactor. […] The MMAD was calculated by a nonlinear regression fit of a log-normal function to the data. […]

SMILES: O=C(O)c1cn(C2CC2)c2cc(N3CCNCC3)c(F)cc2c1=O [ciprofloxacin]
- range size of most of the particles (cascade impactor): 4.9+/−1 μm
